Measurements: US20250034216A1, “STEREOSELECTIVE COVALENT LIGANDS FOR ONCOGENIC AND IMMUNOLOGICAL PROTEINS” (The Scripps Research Institute, priority 2021, published 2025)

Columns and labels:
Assay in all cases: IA-DTB cysteine engagement
Type in all cases: binding
APOOL_C74 = biological target: T1, APOOL_C74 (Homo sapiens, UniProt Q6UXV4); conditions: 22Rv1 cells, 20 μM probe, 1 h, relative to DMSO
T1 construct: endogenous in cells; host or cells: 22Rv1
T1 sequence (Q6UXV4 28-268): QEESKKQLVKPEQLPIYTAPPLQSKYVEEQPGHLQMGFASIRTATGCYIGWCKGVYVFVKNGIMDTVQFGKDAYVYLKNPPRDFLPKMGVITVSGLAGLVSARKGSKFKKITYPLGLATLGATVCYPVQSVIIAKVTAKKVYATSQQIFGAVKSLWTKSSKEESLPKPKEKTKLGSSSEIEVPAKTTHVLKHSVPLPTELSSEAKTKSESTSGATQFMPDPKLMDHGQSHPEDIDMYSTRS
How it was run: (§1)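 Cells were treated in situ with electrophilic probes, then lysed, and the lysates (2 mg/mL protein) were labeled with IA-DTB for 1 h at ambient temperature. After reduction, alkylation and trypsin digestion, labeled peptides were streptavidin-enriched, TMT-labeled and fractionated. Engagement ratios are probe vs DMSO reporter intensities, averaged across replicates.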

GNPAT_C122 = biological target: T2, GNPAT_C122 (Homo sapiens, UniProt O15228); conditions: 22Rv1 cells, 20 μM probe, 1 h, relative to DMSO
T2 construct: endogenous in cells; host or cells: 22Rv1
T2 sequence (O15228 1-680): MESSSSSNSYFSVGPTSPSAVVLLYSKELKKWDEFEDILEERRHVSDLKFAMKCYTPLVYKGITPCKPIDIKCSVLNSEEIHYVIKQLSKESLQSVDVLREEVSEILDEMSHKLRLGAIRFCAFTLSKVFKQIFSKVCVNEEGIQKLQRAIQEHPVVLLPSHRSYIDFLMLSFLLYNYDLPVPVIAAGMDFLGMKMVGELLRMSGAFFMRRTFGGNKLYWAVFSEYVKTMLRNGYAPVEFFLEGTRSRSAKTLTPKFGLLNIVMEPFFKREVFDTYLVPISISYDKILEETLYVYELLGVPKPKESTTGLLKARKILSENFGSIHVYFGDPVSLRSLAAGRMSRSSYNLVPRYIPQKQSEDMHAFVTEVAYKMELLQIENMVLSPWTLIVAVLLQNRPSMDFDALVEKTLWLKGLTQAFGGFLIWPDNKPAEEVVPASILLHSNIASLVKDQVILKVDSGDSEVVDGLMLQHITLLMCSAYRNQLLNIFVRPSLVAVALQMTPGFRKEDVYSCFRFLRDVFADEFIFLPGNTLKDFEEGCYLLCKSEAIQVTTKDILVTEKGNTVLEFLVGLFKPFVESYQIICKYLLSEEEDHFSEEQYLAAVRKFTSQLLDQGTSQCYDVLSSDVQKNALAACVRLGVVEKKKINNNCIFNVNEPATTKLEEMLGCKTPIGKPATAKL
How it was run: as §1

NCAPD2_C439 = biological target: T3, NCAPD2_C439 (Homo sapiens, UniProt Q15021); conditions: 1 h, 22Rv1 cells, 20 μM probe, relative to DMSO; for % engagement NCAPD2_C439: 60 min, 20 µM
T3 construct: endogenous in cells; host or cells: 22Rv1
How it was run: as §1

SLC25A16_C311 = biological target: T4, SLC25A16_C311 (Homo sapiens, UniProt P16260); conditions: 22Rv1 cells, 20 μM probe, 1 h, relative to DMSO
T4 construct: endogenous in cells; host or cells: 22Rv1
T4 sequence (P16260 1-332): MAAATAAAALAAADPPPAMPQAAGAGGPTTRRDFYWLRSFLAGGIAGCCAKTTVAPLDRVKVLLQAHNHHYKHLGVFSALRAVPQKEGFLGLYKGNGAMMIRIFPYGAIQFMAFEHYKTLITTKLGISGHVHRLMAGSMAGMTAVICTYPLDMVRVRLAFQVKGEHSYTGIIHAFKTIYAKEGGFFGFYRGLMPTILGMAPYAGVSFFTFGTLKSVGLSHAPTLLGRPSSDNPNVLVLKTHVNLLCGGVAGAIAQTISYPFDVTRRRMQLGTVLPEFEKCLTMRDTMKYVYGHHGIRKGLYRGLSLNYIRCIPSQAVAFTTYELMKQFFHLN
How it was run: as §1

SYNE2_C2994 = biological target: T5, SYNE2_C2994 (Homo sapiens, UniProt Q8WXH0); conditions: 22Rv1 cells, 20 μM probe, 1 h, relative to DMSO
T5 construct: endogenous in cells; host or cells: 22Rv1
How it was run: as §1

TRMT61A_C209 = biological target: T6, TRMT61A_C209 (Homo sapiens, UniProt Q96FX7); conditions: 22Rv1 cells, 20 μM probe, 1 h, relative to DMSO
T6 construct: endogenous in cells; host or cells: 22Rv1
How it was run: as §1

T3 sequence (Q15021 whole entry): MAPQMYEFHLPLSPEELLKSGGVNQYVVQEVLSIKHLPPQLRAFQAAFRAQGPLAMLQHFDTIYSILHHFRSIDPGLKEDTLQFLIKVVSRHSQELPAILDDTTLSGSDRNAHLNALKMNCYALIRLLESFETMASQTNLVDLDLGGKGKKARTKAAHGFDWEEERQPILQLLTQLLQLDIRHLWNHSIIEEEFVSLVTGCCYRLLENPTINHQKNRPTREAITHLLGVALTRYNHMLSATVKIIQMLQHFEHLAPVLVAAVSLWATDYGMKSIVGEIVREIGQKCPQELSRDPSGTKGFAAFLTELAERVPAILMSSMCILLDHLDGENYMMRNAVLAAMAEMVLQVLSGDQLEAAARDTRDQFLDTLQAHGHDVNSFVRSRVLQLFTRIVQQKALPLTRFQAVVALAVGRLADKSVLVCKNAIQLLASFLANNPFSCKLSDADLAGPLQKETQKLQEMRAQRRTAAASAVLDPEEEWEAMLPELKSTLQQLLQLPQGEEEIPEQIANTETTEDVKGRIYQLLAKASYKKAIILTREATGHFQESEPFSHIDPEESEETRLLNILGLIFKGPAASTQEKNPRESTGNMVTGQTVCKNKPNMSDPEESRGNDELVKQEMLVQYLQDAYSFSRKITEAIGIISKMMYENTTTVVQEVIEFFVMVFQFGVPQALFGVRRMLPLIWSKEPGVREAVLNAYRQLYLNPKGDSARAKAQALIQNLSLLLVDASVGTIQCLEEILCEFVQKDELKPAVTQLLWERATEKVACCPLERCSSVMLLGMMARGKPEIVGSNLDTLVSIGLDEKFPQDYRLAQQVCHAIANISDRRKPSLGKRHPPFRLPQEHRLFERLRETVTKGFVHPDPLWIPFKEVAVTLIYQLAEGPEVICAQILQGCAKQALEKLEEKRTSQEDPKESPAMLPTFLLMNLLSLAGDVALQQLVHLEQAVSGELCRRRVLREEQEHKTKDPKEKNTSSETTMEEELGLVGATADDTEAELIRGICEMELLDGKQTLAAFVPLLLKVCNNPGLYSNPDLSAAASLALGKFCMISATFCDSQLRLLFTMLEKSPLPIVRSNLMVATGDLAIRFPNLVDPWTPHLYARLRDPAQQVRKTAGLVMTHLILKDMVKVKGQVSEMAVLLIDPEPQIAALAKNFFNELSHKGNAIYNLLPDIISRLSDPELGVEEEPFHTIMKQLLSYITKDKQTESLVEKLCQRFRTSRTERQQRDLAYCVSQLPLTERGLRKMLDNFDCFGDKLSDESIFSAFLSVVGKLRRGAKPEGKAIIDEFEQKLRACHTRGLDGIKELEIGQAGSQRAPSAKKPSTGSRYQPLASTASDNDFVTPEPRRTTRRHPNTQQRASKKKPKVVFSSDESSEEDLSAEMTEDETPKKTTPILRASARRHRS
T6 sequence (Q96FX7 whole entry): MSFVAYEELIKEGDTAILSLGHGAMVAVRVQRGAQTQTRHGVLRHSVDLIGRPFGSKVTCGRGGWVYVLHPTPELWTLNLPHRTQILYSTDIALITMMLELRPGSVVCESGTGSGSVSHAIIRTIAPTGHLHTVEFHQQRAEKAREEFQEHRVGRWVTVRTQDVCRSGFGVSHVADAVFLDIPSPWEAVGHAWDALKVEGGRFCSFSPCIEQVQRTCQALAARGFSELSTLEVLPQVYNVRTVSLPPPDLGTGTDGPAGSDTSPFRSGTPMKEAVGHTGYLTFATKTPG

% engagement APOOL_C74 (APOOL_C74) | % engagement GNPAT_C122 (GNPAT_C122) | inhibition at 20 µM (NCAPD2_C439) | % engagement SLC25A16_C311 (SLC25A16_C311) | % engagement SYNE2_C2994 (SYNE2_C2994) | % engagement TRMT61A_C209 (TRMT61A_C209) | % engagement NCAPD2_C439 (NCAPD2_C439) | Structure (SMILES)
52.75% | 70.5% | 29.5% | 79% | 29.5% | 40.75% |  | C=CC(=O)N1C[C@@H](c2ccc(Br)cc2)[C@H]1C(=O)Nc1cccc2cccnc12 [MY-1A, (2S,3R)-1-acryloyl-3-(4-bromophenyl)-N-(quinolin-8-yl)azetidine-2-carboxamide]
64.5% | 74.5% | 20% | 37.5% | 75.75% | 67% |  | C=CC(=O)N1C[C@H](c2ccc(Br)cc2)[C@@H]1C(=O)Nc1cccc2cccnc12 [MY-1B, (2R,3S)-1-acryloyl-3-(4-bromophenyl)-N-(quinolin-8-yl)azetidine-2-carboxamide]
71.25% | 51.5% |  | 38.5% | 37.5% | 56% | 80% | C=CC(=O)N1C[C@H](c2ccc(Br)cc2)[C@H]1C(=O)Nc1cccc2cccnc12 [MY-3B, (2S,3S)-1-acryloyl-3-(4-bromophenyl)-N-(quinolin-8-yl)azetidine-2-carboxamide]
52% | 35.5% |  | 32% | 11.25% | 18.75% | 21.5% | C=CC(=O)N1C[C@H](c2ccc(Br)cc2)[C@H]1C(=O)Nc1cccc2cccnc12 [MY-3A, (2S,3S)-1-acryloyl-3-(4-bromophenyl)-N-(quinolin-8-yl)azetidine-2-carboxamide]
